Here are results for 46 compounds from US8044198B2, “Sirtuin modulating compounds” (Sirtris Pharmaceuticals, Inc., priority 2005, dated 2011).

Each structure is given as a SMILES string. pEC50, pIC50: −log10 of the molar value. Like-named read-outs stand apart in the source and are kept apart here.

The target in this assay is T1, SIRT1 (Homo sapiens, UniProt Q96EB6).
T1 sequence (Q96EB6 1-747): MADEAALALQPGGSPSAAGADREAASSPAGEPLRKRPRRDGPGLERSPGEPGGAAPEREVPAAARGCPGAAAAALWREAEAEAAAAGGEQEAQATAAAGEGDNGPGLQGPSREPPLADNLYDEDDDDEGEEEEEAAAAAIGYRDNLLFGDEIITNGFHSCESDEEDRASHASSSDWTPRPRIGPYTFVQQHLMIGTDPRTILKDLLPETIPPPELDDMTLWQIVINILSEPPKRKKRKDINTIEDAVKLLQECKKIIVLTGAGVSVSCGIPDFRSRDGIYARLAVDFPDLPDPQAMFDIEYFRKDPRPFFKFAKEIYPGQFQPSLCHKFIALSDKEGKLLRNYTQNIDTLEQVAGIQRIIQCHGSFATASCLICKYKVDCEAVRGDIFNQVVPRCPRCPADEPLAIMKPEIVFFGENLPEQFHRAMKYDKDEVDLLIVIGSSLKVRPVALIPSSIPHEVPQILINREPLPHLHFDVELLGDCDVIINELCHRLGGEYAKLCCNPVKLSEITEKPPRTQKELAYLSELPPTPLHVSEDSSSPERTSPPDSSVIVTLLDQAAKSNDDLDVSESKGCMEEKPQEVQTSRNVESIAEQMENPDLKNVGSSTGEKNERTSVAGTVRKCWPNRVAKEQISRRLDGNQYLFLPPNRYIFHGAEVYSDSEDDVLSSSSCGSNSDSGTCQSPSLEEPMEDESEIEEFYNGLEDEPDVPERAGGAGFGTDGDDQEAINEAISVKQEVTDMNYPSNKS
In words: SIRT1 mass spectrometry (MS) based deacetylation assay. For FOLD ACT. MS: test concentration or dose not given here. The format is biochemical.

Setting [1] is: Sirt1 activators, fold activation as determined by MS.
Where [2] appears, read: Sirt1 activators, mass spectrometry assay, read-out: ED50 MS ASSAY.
[3] abbreviates: SIRT1 activation, mass spectrometry assay, read-out: ED50 MS ASSAY.
Where [4] appears, read: fold activation of SIRT1, mass spectrometry assay.
Setting [5] is: fold activation of SIRT1 as determined by MS.
Where [6] appears, read: SIRT1 fold activation as determined by MS.

As for `O=C(Nc1ccccc1-c1cn2c(CN3CCNCC3)csc2n1)c1c[nH]c2ccccc12` [Compound 510], the “FOLD ACT. MS” value under setting [1] is “A (A (Fold activation >250%))”. Moreover, the pEC50 under setting [2] was > 5.30.
Taken in the same sequence, the figures for `COc1cc(NC(=S)Nc2cc(-c3nc4ncccc4o3)ccn2)cc(OC)c1OC` [Compound 663] were “B (B (Fold Activation <250%))” and 4.30 to 5.30.
With `COc1cc(C(=O)Nc2ccc(-c3nc4ccncc4o3)cc2)cc(OC)c1OC` [Compound 341], the pEC50 under setting [3] is > 5.30. Moreover, the “FOLD ACT. MS” value under setting [4] is listed as “B (B (Fold Activation <250%))”.
As for `COc1cccc(C(=O)Nc2cccc(-c3nc4cccnc4s3)c2)c1OC` [Compound 214], the pEC50 under setting [3] is 4.30 to 5.30. For the same compound, the “FOLD ACT. MS” value under setting [5] was “B (B (Fold Activation <250%))”.
In the case of `COc1cc(C(=O)Nc2ccccc2-c2nc3ccncc3s2)ccc1CN1CCCC1` [Compound 436], the pEC50 under setting [3] was 4.30 to 5.30. Besides, the “FOLD ACT. MS” value under setting [4] was “A (A (Fold activation >250%))”.
With `COc1ccc(C(=O)Nc2cccc(-c3nc4ncccc4o3)n2)c(OC)c1` [Compound 69], the pEC50 under setting [3] was 4.30 to 5.30. Also, the “FOLD ACT. MS” value under setting [5] is given as “B (B (Fold Activation <250%))”.
On to `COc1cc(C(=O)Nc2ccccc2-c2nc3ccccn3c2CN2CCNCC2)cc(OC)c1OC` [Compound 362], for which the pEC50 under setting [3] is 4.00 to 4.29. Besides, under setting [4], the “FOLD ACT. MS” value is recorded as “B (B (Fold Activation <250%))”.
Regarding `COc1ccc(C(=O)Nc2ccc(-c3nc4ccccc4[nH]3)cc2)cc1OC` [Compound 294], under setting [3], the pEC50 is > 5.30. The “FOLD ACT. MS” value under setting [4] is given as “B (B (Fold Activation <250%))”.
On to `NC1CCN(Cc2csc3nc(-c4ccccc4NC(=O)c4cnc5ccccc5n4)cn23)CC1` [Compound 716], for which the pEC50 under setting [3] is > 5.30. In addition, under setting [6], the “FOLD ACT. MS” value was “A (A (Fold activation >250%))”.
Usually pIC50 stands for the IC50 on a negative log10 scale, so that one unit is a factor of ten. For `O=S(=O)(Nc1cccc(-c2nc3ccncc3s2)c1)c1ccc(S(=O)(=O)c2ccccc2)s1` [Compound 654], the pIC50 (Sirt1 Inhibitors, mass spectrometry assay) is < 3.82.
`CN(C)c1cccc(C(=O)Nc2ccccc2-c2nc3cc(CN4CCOCC4)cnc3s2)c1` [Compound 686]: the pEC50 under setting [3] was > 5.30. Besides, under setting [6], the “FOLD ACT. MS” value is “A (A (Fold activation >250%))”.
Regarding `COc1ccc(C(=O)Nc2ccccc2-c2cnc3ccccc3c2)cc1OC` [Compound 414], under setting [3], the pEC50 was 4.30 to 5.30. Also, the “FOLD ACT. MS” value under setting [4] is listed as “B (B (Fold Activation <250%))”.
Regarding `CN(C)c1cccc(C(=O)Nc2cccc(-c3nc4ncccc4s3)c2)c1` [Compound 200], the pEC50 was > 5.30. Under setting [5], the “FOLD ACT. MS” value was “B (B (Fold Activation <250%))”.
In the case of `COc1cc(C(=O)Nc2cc(C(=O)O)cc(-c3nc4ccncc4s3)c2)cc(OC)c1OC` [Compound 134, 3-(thiazolo[5,4-c]pyridin-2-yl)-5-(3,4,5-trimethoxybenzamido)benzoic acid], the pEC50 under setting [3] was > 5.30. Further, the “FOLD ACT. MS” value under setting [5] is given as “B (B (Fold Activation <250%))”.
As for `CN(C)c1cccc(C(=O)Nc2cccc(-c3nc4cnccc4s3)c2)c1` [Compound 402], under setting [3], the pEC50 is > 5.30. Further, the “FOLD ACT. MS” value under setting [4] is recorded as “B (B (Fold Activation <250%))”.
In the case of `CN(C)c1cccc(C(=O)Nc2cccc(-c3nc4ccncc4o3)c2)c1` [Compound 453], the pEC50 under setting [3] is 4.30 to 5.30. For the same compound, the “FOLD ACT. MS” value under setting [4] is “B (B (Fold Activation <250%))”.
For `COc1cc(OC)cc(C(=O)Nc2ccccc2-c2nc3ccc(CN4CCNCC4)nc3s2)c1` [Compound 726], the pEC50 under setting [3] is > 5.30. In addition, the “FOLD ACT. MS” value under setting [6] is “A (A (Fold activation >250%))”.
Take `COc1ccc(C(=O)Nc2ccccc2-c2cn3cccnc3n2)cc1OC` [Compound 438]: the pEC50 under setting [3] is > 5.30. The “FOLD ACT. MS” value under setting [4] is “A (A (Fold activation >250%))”.
Consider `CN(C)c1ccc(C(=O)Nc2ccccc2-c2nc3cnccc3o2)cc1` [Compound 407], for which the pEC50 under setting [3] was > 5.30. Further, under setting [4], the “FOLD ACT. MS” value is recorded as “B (B (Fold Activation <250%))”.
For `COc1ccc(C(=O)Nc2ccccc2-c2cn3c(CN4CCNCC4)csc3n2)cc1F` [Compound 679], under setting [1], the “FOLD ACT. MS” value is listed as “B (B (Fold Activation <250%))”. Further, the pEC50 under setting [2] was 4.30 to 5.30.
Regarding `CC(CC(=O)Nc1cccc(-c2nc3ccncc3s2)c1)Oc1ccccc1` (stereo not drawn) [Compound 396], under setting [3], the pEC50 was 4.30 to 5.30. In addition, the “FOLD ACT. MS” value under setting [4] is “B (B (Fold Activation <250%))”.
On to `O=C(Nc1ccccc1-c1nc2cc(CN3CCNCC3)cnc2s1)c1ccc2ccccc2n1` [Compound 646], for which, under setting [1], the “FOLD ACT. MS” value is reported as “A (A (Fold activation >250%))”. Besides, the pEC50 under setting [2] was 4.30 to 5.30.
Regarding `Cc1cc(C)cc(C(=O)Nc2ccccc2-c2nc3ncccc3o2)c1` [Compound 482], the “FOLD ACT. MS” value under setting [1] is on record as “B (B (Fold Activation <250%))”. Under setting [2], the pEC50 is > 5.30.
In the case of `COc1ccc(S(=O)(=O)Nc2cncc(-c3nc4ncccc4o3)c2)cc1OC` [Compound 74], the pEC50 under setting [3] was < 3.82.
As to `COc1ccc(C(=O)Nc2cccc(-c3cccnc3)c2)c(OC)c1` [Compound 331], under setting [3], the pEC50 is 4.30 to 5.30. In addition, the “FOLD ACT. MS” value under setting [4] is listed as “B (B (Fold Activation <250%))”.
Consider `O=C(Nc1ccccc1-c1cn2c(CCN3CCNCC3)csc2n1)c1cnc2ccccc2n1` [Compound 680], for which the “FOLD ACT. MS” value under setting [1] is reported as “A (A (Fold activation >250%))”. Under setting [2], the pEC50 was > 5.30.
In the case of `COc1ccc(C(=O)Nc2ccccc2-c2cn3c(n2)CCCC3)cc1OC` [Compound 545], under setting [1], the “FOLD ACT. MS” value was “B (B (Fold Activation <250%))”. Moreover, under setting [2], the pEC50 is 4.30 to 5.30.
As for `COc1ccc(C(=O)Nc2cccc(-c3nc4ccncc4o3)c2)cc1OC` [Compound 454], under setting [3], the pEC50 was 4.30 to 5.30. Moreover, the “FOLD ACT. MS” value under setting [4] was “B (B (Fold Activation <250%))”.
`COc1cc(C(=O)Nc2ccccc2-c2cn3ccccc3n2)ccc1CN1CCOCC1` [Compound 541]: under setting [1], the “FOLD ACT. MS” value is on record as “B (B (Fold Activation <250%))”. Moreover, the pEC50 under setting [2] was 4.30 to 5.30.
As to `COc1cc(OC)cc(C(=O)Nc2cccc(-c3nc4cnccc4o3)c2)c1` [Compound 297], the pEC50 under setting [3] was 4.30 to 5.30. Further, the “FOLD ACT. MS” value under setting [4] is on record as “B (B (Fold Activation <250%))”.
Take `COc1cc(C(=O)Nc2ccccc2-c2nc3cnccc3o2)cc(OC)c1OC` [Compound 405]: the pEC50 under setting [3] was > 5.30. Under setting [4], the “FOLD ACT. MS” value is on record as “B (B (Fold Activation <250%))”.
For the compound `COc1ccc(C(=O)Nc2ccccc2-n2cccn2)cc1OC` [Compound 177], under setting [3], the pEC50 was < 3.82. The “FOLD ACT. MS” value under setting [5] is recorded as “B (B (Fold Activation <250%))”.
For the compound `COc1cc(C(=O)Nc2ccccc2-c2nc3cc(CN4CCOCC4)cnc3s2)cc(OC)c1OC` [Compound 681], the pEC50 under setting [2] was 4.30 to 5.30.
On to `S=C(Nc1ccc(-n2cccn2)cc1)Nc1cccc(-c2nc3ccncc3s2)c1` [Compound 481], for which, under setting [2], the pEC50 was 4.30 to 5.30.
In the case of `COc1cc(OC)cc(C(=O)Nc2ccccc2-c2nc3cc(CN4CCNCC4)cnc3s2)c1` [Compound 589], the “FOLD ACT. MS” value under setting [1] was “A (A (Fold activation >250%))”. Further, the pEC50 under setting [2] is > 5.30.
Regarding `O=C(Nc1ccccc1-c1cn2c(CN3CCCC3)csc2n1)c1cnc2ccccc2n1` [Compound 619], the “FOLD ACT. MS” value under setting [1] is given as “B (B (Fold Activation <250%))”. The pEC50 under setting [2] was > 5.30.
`COc1ccc(-c2ccc(C(=O)Nc3ccccc3-c3cn4c(CN5CCNCC5)csc4n3)o2)cc1` [Compound 736]: the pEC50 under setting [3] is > 5.30. Besides, the “FOLD ACT. MS” value under setting [6] is listed as “A (A (Fold activation >250%))”.
In the case of `O=C(Nc1cccc(-c2nc3ccncc3s2)c1)c1ccccc1Oc1ccccc1` [Compound 245], the pEC50 under setting [3] was > 5.30. In addition, the “FOLD ACT. MS” value under setting [4] is listed as “B (B (Fold Activation <250%))”.
Regarding `COc1cc(OC)cc(C(=O)Nc2ccc(-c3nc4cnccc4s3)cc2)c1` [Compound 323], under setting [3], the pEC50 is 4.30 to 5.30. Further, the “FOLD ACT. MS” value under setting [4] was “B (B (Fold Activation <250%))”.
Regarding `COc1cc(C(=O)Nc2cccc(-c3nc4ncccc4o3)c2)ccc1CN1CCCC1` [Compound 506], under setting [1], the “FOLD ACT. MS” value is listed as “A (A (Fold activation >250%))”. Moreover, the pEC50 under setting [2] is 4.30 to 5.30.
Consider `COc1ccc(C(=O)Nc2ccccc2-n2cccc2)cc1OC` [Compound 175], for which the pEC50 under setting [3] is 4.00 to 4.29. For the same compound, under setting [5], the “FOLD ACT. MS” value is reported as “B (B (Fold Activation <250%))”.
In the case of `COc1cc(C(=O)Nc2ccccc2-c2cn3c(CN4CCCC4)csc3n2)cc(OC)c1OC` [Compound 620], the “FOLD ACT. MS” value under setting [1] is “B (B (Fold Activation <250%))”. Further, the pEC50 under setting [2] is > 5.30.
Taken in the same sequence, the figures for `COc1cccc(C(=O)Nc2ccccc2-c2nc3cccnc3[nH]2)c1C` [Compound 530] were “B (B (Fold Activation <250%))” and > 5.30.
As to `O=C(Cc1ccccc1)Nc1ccccc1-c1cn2c(CN3CCNCC3)csc2n1` [Compound 445], under setting [3], the pEC50 was 4.30 to 5.30. Further, the “FOLD ACT. MS” value under setting [4] is reported as “B (B (Fold Activation <250%))”.
As for `S=C(Nc1ccc2c(c1)OCO2)Nc1cccc(-c2nc3ncccc3o2)n1` [Compound 147], under setting [3], the pEC50 was < 3.82.
For the compound `COc1cc(C(=O)Nc2cccc(-c3nc4cnccc4o3)c2)cc(OC)c1OC` [Compound 298], the pEC50 under setting [3] is 4.30 to 5.30. Moreover, the “FOLD ACT. MS” value under setting [4] is given as “B (B (Fold Activation <250%))”.
